From BindingDB's records for PubMed 35429911 (Univ. Lille, 2022)

Molecular target: Programmed cell death 1 ligand/protein 1 (Homo sapiens, UniProt Q9NZQ7+Q15116)
Test: Inhibition of human PD-1/PD-L1 interaction in CHO-K1 cells transfected with PD-1-YFP/SHP-2-CFP and measured by FRET assay

Programmed cell death 1 ligand/protein 1, sequence (Q9NZQ7 whole entry): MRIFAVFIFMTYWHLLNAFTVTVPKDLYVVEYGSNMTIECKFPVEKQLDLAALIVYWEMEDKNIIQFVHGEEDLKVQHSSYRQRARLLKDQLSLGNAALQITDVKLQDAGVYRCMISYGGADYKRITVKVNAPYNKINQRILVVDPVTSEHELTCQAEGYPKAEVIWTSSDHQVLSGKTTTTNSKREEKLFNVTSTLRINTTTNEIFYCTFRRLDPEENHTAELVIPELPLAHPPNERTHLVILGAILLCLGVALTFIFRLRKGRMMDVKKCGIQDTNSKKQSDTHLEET
Programmed cell death 1 ligand/protein 1, sequence (Q15116 whole entry): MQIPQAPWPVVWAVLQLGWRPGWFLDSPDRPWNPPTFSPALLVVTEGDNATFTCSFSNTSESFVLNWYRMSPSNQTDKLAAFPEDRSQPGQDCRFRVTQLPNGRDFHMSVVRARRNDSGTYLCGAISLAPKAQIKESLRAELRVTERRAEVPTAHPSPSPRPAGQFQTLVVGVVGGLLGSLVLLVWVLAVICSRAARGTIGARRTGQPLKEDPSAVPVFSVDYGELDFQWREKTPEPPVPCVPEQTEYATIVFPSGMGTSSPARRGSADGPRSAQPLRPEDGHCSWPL

COc1ccccc1C1=NN(c2ccccn2)C(=O)C1
IC50: 0.007 µM

COc1ccc(C2=NN(c3ccccn3)C(=O)C2)cc1
IC50: 0.017 µM
